Reference: ChEMBL document CHEMBL1201862, “PubChem BioAssay data set” (2004)
Calls of active or inactive are those of the source. Cut-off read from the data, not from the text of the source, for most assays here: actives have a measured EC50 and inactives only a lower limit.

What was measured:
[1] = molecular target: T1, Heat shock factor protein 1 (Mus musculus, UniProt P38532); test: decrease of HSF1-responsive luciferase luminescence – cell-based, NIH3T3, dose retest, confirmation (AID 2382); format: functional;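 note: NIH3T3 fibroblasts with HSF1-driven luciferase reporter stressed by proteasome inhibitor MG132; luminescence from HSF1-driven luciferase expression after 8 hours of MG132 stress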
T1 sequence (P38532 whole entry): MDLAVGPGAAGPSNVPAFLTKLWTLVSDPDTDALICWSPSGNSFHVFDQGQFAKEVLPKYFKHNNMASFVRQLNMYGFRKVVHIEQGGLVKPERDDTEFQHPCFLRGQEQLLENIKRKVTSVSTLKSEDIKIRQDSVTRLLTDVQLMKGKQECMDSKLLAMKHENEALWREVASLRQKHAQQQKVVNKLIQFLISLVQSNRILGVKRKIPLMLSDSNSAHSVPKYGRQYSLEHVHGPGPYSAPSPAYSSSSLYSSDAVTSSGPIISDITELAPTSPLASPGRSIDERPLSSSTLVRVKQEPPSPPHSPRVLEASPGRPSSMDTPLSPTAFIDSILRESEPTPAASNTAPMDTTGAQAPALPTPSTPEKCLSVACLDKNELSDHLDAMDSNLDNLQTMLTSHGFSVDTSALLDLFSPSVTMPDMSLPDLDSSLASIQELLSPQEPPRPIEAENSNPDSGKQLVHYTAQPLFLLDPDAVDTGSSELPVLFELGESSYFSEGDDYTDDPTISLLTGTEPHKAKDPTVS

[2] = molecular target: Luciferin 4-monooxygenase (Photinus pyralis, UniProt P08659); test: inhibition of purified Photinus pyralis luciferase – biochemical, luminescence, dose response (AID 1891)
[3] = Luminescence Cell-Based Dose Confirmation HTS to Identify Inhibitors of Platelet Dense Granule Release. [Related pubchem assays: 1663 (Primary HTS), 1678 (Summary of Project)]; format: functional
[4] = molecular target: T2, Corticotropin-releasing factor receptor 2/Corticotropin-releasing factor-binding protein (Homo sapiens, UniProt P24387+Q13324); test: Dose Response confirmation of uHTS hits for small molecule antagonists of the CRF-binding protein and CRF-R2 receptor complex.; format: functional; conditions: read-out: IC50_Mean
T2 sequence (Q13324 whole entry): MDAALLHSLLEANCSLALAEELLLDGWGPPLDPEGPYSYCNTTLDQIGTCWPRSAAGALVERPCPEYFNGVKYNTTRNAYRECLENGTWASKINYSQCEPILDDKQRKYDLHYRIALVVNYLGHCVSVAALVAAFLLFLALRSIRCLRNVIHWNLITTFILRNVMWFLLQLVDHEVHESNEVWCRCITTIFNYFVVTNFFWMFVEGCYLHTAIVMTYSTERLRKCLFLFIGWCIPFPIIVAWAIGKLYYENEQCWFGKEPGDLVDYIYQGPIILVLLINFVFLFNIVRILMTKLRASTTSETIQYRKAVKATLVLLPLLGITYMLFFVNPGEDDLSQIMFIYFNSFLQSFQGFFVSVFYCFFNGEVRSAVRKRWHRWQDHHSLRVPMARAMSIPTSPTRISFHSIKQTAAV
T2 sequence (P24387 whole entry): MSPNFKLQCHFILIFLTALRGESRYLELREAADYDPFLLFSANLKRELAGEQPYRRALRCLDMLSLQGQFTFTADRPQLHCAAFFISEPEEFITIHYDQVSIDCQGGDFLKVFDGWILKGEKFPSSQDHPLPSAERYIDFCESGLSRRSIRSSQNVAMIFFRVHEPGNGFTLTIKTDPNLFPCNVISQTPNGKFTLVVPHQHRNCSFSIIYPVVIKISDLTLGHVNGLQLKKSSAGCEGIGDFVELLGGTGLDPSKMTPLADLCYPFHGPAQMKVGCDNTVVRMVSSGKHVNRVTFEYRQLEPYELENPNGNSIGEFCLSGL

[5] = molecular target: T2, Corticotropin-releasing factor receptor 2/Corticotropin-releasing factor-binding protein; test: activators of CRF receptor 2 with binding protein – uHTS hits, confirmation (AID 602473); format: functional; conditions: read-out: EC50_Mean
[6] = molecular target: T3, Replicative DNA helicase DnaB (Mycobacterium tuberculosis, UniProt P9WMR3); test: DnaB intein splicing inhibitors, dose response, biochemical, cell-free fluorescence (AID 449749); format: functional
T3 sequence (P9WMR3 whole entry): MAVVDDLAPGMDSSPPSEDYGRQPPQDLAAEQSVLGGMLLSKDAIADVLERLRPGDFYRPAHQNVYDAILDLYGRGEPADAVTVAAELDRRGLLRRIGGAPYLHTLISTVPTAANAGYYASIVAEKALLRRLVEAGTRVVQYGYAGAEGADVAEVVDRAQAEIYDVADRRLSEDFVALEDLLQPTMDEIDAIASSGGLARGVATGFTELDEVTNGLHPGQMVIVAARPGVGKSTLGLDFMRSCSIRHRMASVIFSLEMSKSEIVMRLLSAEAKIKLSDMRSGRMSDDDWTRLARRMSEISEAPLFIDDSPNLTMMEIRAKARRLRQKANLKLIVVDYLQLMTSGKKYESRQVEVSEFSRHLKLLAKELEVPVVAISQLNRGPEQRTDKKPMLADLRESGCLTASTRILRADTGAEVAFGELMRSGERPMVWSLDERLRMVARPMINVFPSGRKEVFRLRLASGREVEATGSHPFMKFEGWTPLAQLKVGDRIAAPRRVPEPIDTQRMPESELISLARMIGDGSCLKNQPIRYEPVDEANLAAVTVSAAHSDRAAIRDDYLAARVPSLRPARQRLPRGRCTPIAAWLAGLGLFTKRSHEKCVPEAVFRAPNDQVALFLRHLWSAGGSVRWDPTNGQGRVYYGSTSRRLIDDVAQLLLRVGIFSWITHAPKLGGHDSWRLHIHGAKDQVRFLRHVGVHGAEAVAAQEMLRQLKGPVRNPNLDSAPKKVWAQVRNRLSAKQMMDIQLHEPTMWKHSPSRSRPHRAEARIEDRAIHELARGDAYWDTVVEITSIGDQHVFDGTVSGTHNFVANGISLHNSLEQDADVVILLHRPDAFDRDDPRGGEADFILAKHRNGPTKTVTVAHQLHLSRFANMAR

[7] = molecular target: T4, Protein RecA (Mycobacterium tuberculosis, UniProt P9WHJ3); test: Fluorescence Cell-Free Homogeneous Dose Retest to Identify Inhibitors of RecA-Intein Splicing Activity. [Related pubchem assays (depositor defined):AID2097, AID2223, AID489010, AID492950]; format: functional
T4 sequence (P9WHJ3 whole entry): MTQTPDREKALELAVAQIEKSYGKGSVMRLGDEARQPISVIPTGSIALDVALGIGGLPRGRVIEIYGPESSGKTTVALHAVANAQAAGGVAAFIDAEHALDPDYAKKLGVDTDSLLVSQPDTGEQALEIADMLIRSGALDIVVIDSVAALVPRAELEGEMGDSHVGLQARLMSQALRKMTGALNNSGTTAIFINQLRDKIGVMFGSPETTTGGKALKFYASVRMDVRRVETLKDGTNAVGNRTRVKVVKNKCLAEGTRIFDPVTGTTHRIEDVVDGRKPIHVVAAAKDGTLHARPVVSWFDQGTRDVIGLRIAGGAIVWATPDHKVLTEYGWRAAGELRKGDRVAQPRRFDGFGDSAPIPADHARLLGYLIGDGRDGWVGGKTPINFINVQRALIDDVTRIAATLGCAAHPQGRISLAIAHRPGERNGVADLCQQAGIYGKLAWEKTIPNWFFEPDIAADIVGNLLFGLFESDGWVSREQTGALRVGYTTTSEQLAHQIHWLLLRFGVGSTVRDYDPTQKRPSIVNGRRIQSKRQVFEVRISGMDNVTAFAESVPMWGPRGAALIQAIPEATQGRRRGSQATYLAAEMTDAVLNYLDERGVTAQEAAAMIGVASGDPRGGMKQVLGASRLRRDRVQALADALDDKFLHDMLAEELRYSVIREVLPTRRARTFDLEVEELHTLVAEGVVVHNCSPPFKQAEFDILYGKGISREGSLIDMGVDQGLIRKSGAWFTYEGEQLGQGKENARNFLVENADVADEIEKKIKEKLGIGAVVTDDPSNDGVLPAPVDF

[8] = system: INS1; test: INS-1E survival protection against cytokine death – cell-based, luminescence, retest, dose response (AID 449756); format: functional; conditions: Rattus norvegicus;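 note: cell death triggered by IL-1 beta plus TNF-alpha plus IFN-gamma mixture; protective hits raise ATP signal compared with cytokine alone wells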
[9] = molecular target: T5, Cytochrome P450 1A2 (Homo sapiens, UniProt P05177);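 note: PubChem cytochrome P450 panel assay, CYP1A2 panel member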
T5 sequence (P05177 whole entry): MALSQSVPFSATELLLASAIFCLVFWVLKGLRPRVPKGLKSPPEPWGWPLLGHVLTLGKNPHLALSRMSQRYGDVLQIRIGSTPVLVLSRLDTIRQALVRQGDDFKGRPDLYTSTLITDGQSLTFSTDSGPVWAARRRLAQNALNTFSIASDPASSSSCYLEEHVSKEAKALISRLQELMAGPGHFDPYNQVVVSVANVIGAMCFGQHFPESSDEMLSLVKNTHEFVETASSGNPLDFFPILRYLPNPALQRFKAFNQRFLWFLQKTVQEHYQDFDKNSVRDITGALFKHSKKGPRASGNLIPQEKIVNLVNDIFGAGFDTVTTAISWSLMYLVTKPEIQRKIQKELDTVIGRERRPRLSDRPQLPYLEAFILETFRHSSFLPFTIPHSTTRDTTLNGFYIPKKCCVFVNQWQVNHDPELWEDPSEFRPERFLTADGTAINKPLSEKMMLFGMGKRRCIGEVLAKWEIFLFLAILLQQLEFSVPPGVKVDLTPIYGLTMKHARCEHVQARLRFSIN

[10] = Trypanosoma cruzi growth suppression in host cells – NIH3T3 host cells, beta-gal luminescence, confirmation (AID 2044); format: functional, cell-based;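 note: intracellular parasites grown in NIH/3T3 mouse fibroblasts as host cells; luminescent beta-galactosidase reporter signal from transgenic T. cruzi replicating inside host cells; inhibitors lower the luminescence signal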
[11] = NIH3T3 cell viability loss – ATP luminescence, mouse fibroblasts, counter-screen, dose response (AID 2010); format: functional, cell-based;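 note: cells exposed to compound for about 90 hours before reading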
[12] = Luminescence Cell-Based Dose Retest to Confirm Inhibitors of Cancer Stem Cells. [Related pubchem assays (depositor defined):AID2717, AID2721]; format: functional; conditions: Homo sapiens

Luciferin 4-monooxygenase, sequence (P08659 whole entry): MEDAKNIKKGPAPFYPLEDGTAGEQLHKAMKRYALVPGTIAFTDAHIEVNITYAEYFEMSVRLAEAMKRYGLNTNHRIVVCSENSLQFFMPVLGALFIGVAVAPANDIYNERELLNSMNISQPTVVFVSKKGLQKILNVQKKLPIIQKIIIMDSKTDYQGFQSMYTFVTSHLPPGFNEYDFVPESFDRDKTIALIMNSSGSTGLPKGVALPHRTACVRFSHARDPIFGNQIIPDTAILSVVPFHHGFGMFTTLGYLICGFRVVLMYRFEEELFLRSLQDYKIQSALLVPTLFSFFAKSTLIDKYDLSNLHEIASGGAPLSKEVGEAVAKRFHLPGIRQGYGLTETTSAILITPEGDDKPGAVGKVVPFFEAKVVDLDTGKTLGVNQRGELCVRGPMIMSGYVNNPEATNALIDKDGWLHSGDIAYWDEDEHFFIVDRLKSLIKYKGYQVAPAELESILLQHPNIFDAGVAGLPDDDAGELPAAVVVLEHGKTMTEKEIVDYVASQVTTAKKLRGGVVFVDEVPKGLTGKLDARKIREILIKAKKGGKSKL

Row | SMILES | EC50 [1] | EC50 [2] | EC50 [3] | also measured
1 | COc1ccc(-n2cc([N+](=O)[O-])c(=O)c3ccc(Cl)cc32)cc1 | > 195 µM (not active) |  |  | 
2 | Cc1cc(NC(=O)c2c(Cl)cccc2Cl)no1 |  | > 112 µM (not active) | > 112 µM (not active) | 
3 | Cc1cc(C)nc(NC(=O)c2ccc(C)c([N+](=O)[O-])c2)n1 | > 195 µM (not active) |  |  | 
4 | CC(=O)c1c(C)n(CCCOC(C)C)c2ccc(O)cc12 | > 195 µM (not active) |  |  | 
5 | COc1cccc(Oc2ccc(OC)cc2C(=O)O)c1 |  |  |  | IC50 [4]: > 47.1 µM (inactive); EC50 [5]: > 53 µM (inactive)
6 | COc1ccc(CN=C(S)NNC(=O)c2cc3ccccc3o2)cc1 |  | > 112 µM (not active) | > 112 µM (not active) | 
7 | Cc1[nH]n(C(C)(C)C)c(=O)c1Sc1ccccc1 |  |  |  | AC50 [6]: 19.1 µM (active); EC50 [7]: 2.02 µM (active)
8 | Cc1noc(C)c1CSCC(=O)Oc1ccc(N(C)S(=O)(=O)c2ccc(Cl)cc2)cc1 |  |  |  | AC50 [6]: 2.34 µM (active); EC50 [7]: 13.8 µM (active)
9 | CCOC(=S)SCC(=O)Nc1nccs1 |  | > 112 µM (not active) | 21.6 µM (active) | 
10 | N=C(NOC(=O)c1ccc(Cl)cc1Cl)c1ccccn1 |  | 1.05 µM (active) | 3.11 µM (active) | AC50 [8]: 30 µM (active)
11 | CCOC(=O)CN1C(=O)S/C(=C/c2cc(C)n(C)c2C)C1=O | > 195 µM (not active) |  |  | 
12 | Nc1nc(O)cc(Nc2ccccc2Cl)n1 |  |  |  | IC50 [4]: > 47.1 µM (inactive); EC50 [5]: > 53 µM (inactive)
13 | CCOC(=O)c1c(C)[nH]c(C(=O)C(C)OC(=O)c2oc3ccccc3c2COC)c1C (stereo not drawn) |  | > 112 µM (not active) | 5.48 µM (active) | 
14 | CCOC(=O)c1cc(C#N)c(NCc2ccccc2)nc1C | > 195 µM (not active) |  |  | 
15 | CCc1c(C)nc2ccc(C)cc2c1O | > 195 µM (not active) |  |  | 
16 | CC1COc2ccccc2N1C(=O)c1ccc(F)cc1 (stereo not drawn) | > 195 µM (not active) |  |  | 
17 | O=C(O)/C=C/C(=O)Nc1cc(F)ccc1F | 35.9 µM (active) |  |  | 
18 | COc1cc2sc3ccc(C#CC4(O)CCCCC4)cc3c(=O)c2cc1OC |  | 2.35 µM (active) | 4.69 µM (active) | 
19 | O=C(CNC(=O)C1COc2ccccc2O1)N/N=C\c1ccccc1Cl (stereo not drawn) |  |  |  | AC50 [6]: 189 µM (active); EC50 [7]: > 380 µM (inactive)
20 | CC(Oc1ccccc1Cl)C(=O)Nc1ccc(S(=O)(=O)N2CCCC2)cc1 (stereo not drawn) |  | 32 µM (active) | > 112 µM (not active) | 
21 | O=C(CCNc1cccc(F)c1)c1cccc([N+](=O)[O-])c1 |  |  |  | AC50 [6]: > 380 µM (inactive); EC50 [7]: > 380 µM (inactive)
22 | S=C(NCCc1ccccc1)N1CCN(Cc2ccc(Cl)c(Cl)c2)CC1 | > 195 µM (not active) |  |  | 
23 | COc1ccc2nc(SCC(=O)NN)cc(C)c2c1 |  |  |  | AC50 [6]: 50.5 µM (active); EC50 [7]: 10.6 µM (active); AC50 [9]: 0.398 µM (inconclusive)
24 | CC(C)Cn1c(N2CCN(C(=O)/C=C/c3ccccc3)CC2)nc2ccccc21 | > 195 µM (not active) |  |  | 
25 | Cc1cccc(NC(=O)C2CCCN(C(=O)NC3CCCCC3)C2)c1C (stereo not drawn) |  | > 112 µM (not active) | > 112 µM (not active) | 
26 | CCN(CC(=O)Nc1ccccc1OC)C(=O)Cn1cnc2ccccc2c1=O |  | > 112 µM (not active) | > 112 µM (not active) | 
27 | O=C(CSC1=NCCS1)Nc1nc(-c2ccccc2)cs1 |  |  |  | AC50 [6]: > 380 µM (inconclusive); EC50 [7]: 7.45 µM (active)
28 | Cc1ccc(N2C(=O)C(Cl)=C(N3CCOCC3)C2=O)c(C)c1 |  |  |  | AC50 [6]: 16 µM (active); EC50 [7]: 4.19 µM (active)
29 | Cc1ccc(NS(=O)(=O)c2ccc(Cl)c(C(=O)Nc3ccccc3-c3nc4ccccc4[nH]3)c2)cc1C |  | > 112 µM (not active) | > 112 µM (not active) | EC50 [10]: 2.49 µM (active); EC50 [11]: < 6 µM (inconclusive); AC50 [12]: 0.647 µM (active)
